Data as given in US20110144018A1, “AGENT FOR PROPHYLAXIS OF REFLEX SYMPATHETIC DYSTROPHY AFTER CEREBRAL APOPLEXY” (priority 2006, published 2011).

Assays:
[1] = system: patients with hemiplegia attributed to cerebrovascular disease (stroke), post-stroke RSD (shoulder-hand syndrome); assay: Test of prevention of onset of post-stroke RSD; type: in vivo, human
Source text: Test subjects were 33 patients with hemiplegia attributed to cerebrovascular disease (stroke) at Brunnstrom stage III or lower in either the upper limb or a finger on admission. Patients already developing RSD (shoulder-hand syndrome) on admission and patients with pain in the shoulder joint or swollen paralyzed limbs were excluded from the test. […] On the other hand, 21 test subjects were classified into a rehabilitation alone group (control group) and compared with the EL administration group. Physical therapy and therapeutic exercise, occupational therapy, and the management of the paralyzed limbs were performed thoroughly in all the cases. […] EL administration was initiated 11 to 59 days after an attack of stroke (25.8 days on average) and continued until 5 months after the attack of stroke. The same observation period was applied to the control group. The test subjects were diagnosed as developing RSD (shoulder-hand syndrome) if they had diffuse pain not localized to the shoulder joint, edema involving skin color changes, skin temperature abnormalities, and range of motion limitations, and the practice of their rehabilitation was restricted. These criteria agreed to Veldman's diagnostic criteria or diagnostic criteria, for CRPS-type 1 provided by the International Association for the Study of Pain.
Activities of daily living (ADL) were evaluated on the basis of the Barthel Index (BI) and the range of motion (ROM) of shoulder joint. The movable range of shoulder joint (also referred to as “shoulder ROM”) was regarded as restricted (Shoulder-ROM-restrictions were present.) if either abduction or flexion was restricted in measurement. The test subjects were also examined for sensory impairment, aphasia, and unilateral spatial neglect on admission.
Statistical analysis was conducted with unpaired t-test, Fisher's exact test, or Wilcoxon test, and 5% or lower significance level was regarded as being significant.

[2] = system: patients with hemiplegia attributed to cerebrovascular disease (stroke) who developed RSD (shoulder-hand syndrome); assay: Test of treatment of post-stroke RSD; type: in vivo, human; conditions: therapeutic administration group
Procedure: EL was administered after the onset of RSD (shoulder-hand syndrome) in the same use and dose as in Example 1 to 11 patients with hemiplegia attributed to cerebrovascular disease (stroke) at Brunnstrom stage III or lower in either the upper limb or a finger on admission, who developed RSD (shoulder-hand syndrome). These patients were classified into a therapeutic administration group. On the other hand, the EL administration group of Example 1 was compared as a control (preventive administration group) with the therapeutic administration group.

[3] = system: RSD triggered and developed by a trauma or surgical invasion; conditions: clinical; cited from earlier work
[4] = EL preventive administration group, 12 cases, 20 units i.m. once a week until 5 months after attack

| Molecule | Incidence of RSD converted to all patients with hemiplegia attributed to stroke in the facility ([1]; EL administration group) | Incidence of RSD ([1]; EL administration initiated within 48 days after stroke) [%] | Incidence of RSD (cases developing RSD) ([1]; EL preventive administration group, 1 of 12 cases) [%] | Number of test subjects developing post-stroke RSD (Developed) [1, 4] | Number of test subjects not developing post-stroke RSD (Not developed) [1, 4] | No RSD, the number of persons ([1]; preventive administration group, at completion of administration) | Incidence of RSD until discharge from hospital versus unadministered patient group ([1]; repetitive administration to stroke hemiplegia patients without RSD on admission) | Barthel index at completion of EL administration compared with preventive administration group [2] | Diffuse pain, shoulder joint pain and progression of range of motion restrictions [2] | Suppression of the symptoms of RSD [2] | Effect on initial onset of RSD [3] |
| --- | --- | --- | --- | --- | --- | --- | --- | --- | --- | --- | --- |
| 1-butyric acid-7-(L-2-aminobutyric acid)-26-L-aspartic acid-27-L-valine-29-L-alanine-calcitonin [EL] | approximately 1.3% | 0 | 8.3 | 1 | 11 | 11 | suppressed significantly and remarkably | significantly low | slightly suppressed | could not be suppressed completely in any case |  |
| O=C1O[C@H]([C@@H](O)CO)C(O)=C1O [vitamin C] |  |  |  |  |  |  |  |  |  |  | preventive effect |
